ChEMBL document CHEMBL1142818, “Identification of heteroarylenamines as a new class of antituberculosis lead molecules” (Bioorg Med Chem Lett, 2005)
Converted amounts (≈) assume the structure as drawn.

Key:
[1] = test system: Mycobacterium tuberculosis; assay: Minimum inhibitory concentration against Mycobacterium tuberculosis H37Rv pFPCA1 in green fluorescent protein microplate assay; format: functional
Vero [2] = assay: Selectivity ratio for IC50 of VERO cells to that of MIC of Mycobacterium tuberculosis H37Rv; d = Poor solubility prevented determination of activity; format: functional, cell-based; details: Chlorocebus sabaeus
Vero [3] = assay: Inhibitory concentration required to produce cytotoxicity against VERO cells; d = Poor solubility prevented determination of activity; format: functional, cell-based, Chlorocebus sabaeus
Vero [4] = assay: Inhibitory concentration required to produce cytotoxicity against VERO cells; format: functional, cell-based; details: Chlorocebus sabaeus
Vero [5] = assay: Selectivity ratio for IC50 of VERO cells to that of MIC of Mycobacterium tuberculosis H37Rv; format: functional, Chlorocebus sabaeus
[6] = test system: Mycobacterium tuberculosis; assay: Minimum inhibitory concentration against Mycobacterium tuberculosis H37Rv; Range 0.125-0.25 ug/mL; format: functional

## NNC(=O)c1ccncc1 [ISONIAZID]
[1]
  MIC: < 0.2 mg/L

## C=C(C=O)c1c2c(nc3ccccc13)C(=O)c1ccccc1C2=O
Vero [2]
  Selectivity: Poor solubility
Vero [3]
  IC50: Poor solubility
[1]
  MIC: 0.2 mg/L (≈ 0.638 µM)

## CO[C@H]1/C=C/O[C@@]2(C)Oc3c(C)c(O)c4c(O)c(c(/C=N/N5CCN(C)CC5)c(O)c4c3C2=O)NC(=O)/C(C)=C\C=C\[C@H](C)[C@H](O)[C@@H](C)[C@@H](O)[C@@H](C)[C@H](OC(C)=O)[C@@H]1C [RIFAMPIN]
Vero [4]
  IC50: 100 mg/L (≈ 122 µM)
Vero [5]
  Selectivity: 400
[6]
  MIC: 0.25 mg/L (≈ 0.304 µM)

## Cc1c2c(nc3ccccc13)C(=O)c1cccnc1C2=O
Vero [2]
  Selectivity: Poor solubility
Vero [3]
  IC50: Poor solubility
[1]
  MIC: 6.25 mg/L (≈ 22.8 µM)

## CN(C)/C=C/c1c2c(nc3ccccc13)C(=O)c1cccnc1C2=O
Vero [4]
  IC50: < 0.26 mg/L
Vero [5]
  Selectivity: <0.08
[1]
  MIC: 3.13 mg/L (≈ 9.5 µM)

## Cc1c2c(nc3ccccc13)C(=O)c1ccccc1C2=O
Vero [2]
  Selectivity: Poor solubility
Vero [3]
  IC50: Poor solubility
[1]
  MIC: 1.56 mg/L (≈ 5.71 µM)

## O=C(O)c1cn(C2CC2)c2cc(N3CCNCC3)c(F)cc2c1=O [CIPROFLOXACIN]
[1]
  MIC: < 0.2 mg/L

## CN(C)/C=C/c1c2c(nc3ccccc13)C(=O)c1ccccc1C2=O
Vero [4]
  IC50: 5.9 mg/L (≈ 18 µM)
Vero [5]
  Selectivity: 15.1
[1]
  MIC: 0.39 mg/L (≈ 1.19 µM)

## O=C1c2cccnc2-c2nccc3c2c1nc1ccccc13 [ASCIDIDEMIN]
Vero [4]
  IC50: < 0.04 mg/L
Vero [5]
  Selectivity: <0.4
[1]
  MIC: 0.1 mg/L (≈ 0.353 µM)

## CN(C)/C=C/c1ccnc2c1C(=O)c1ccccc1C2=O
Vero [4]
  IC50: 9.1 mg/L (≈ 32.7 µM)
Vero [5]
  Selectivity: 5.8
[1]
  MIC: 1.56 mg/L (≈ 5.61 µM)

## CN(C)CCc1c2c(nc3ccccc13)C(=O)c1cccnc1C2=O
Vero [4]
  IC50: 1.4 mg/L (≈ 4.22 µM)
Vero [5]
  Selectivity: 0.45
[1]
  MIC: 3.13 mg/L (≈ 9.45 µM)

## CC[C@@H](CO)NCCN[C@@H](CC)CO [ETHAMBUTOL]
[1]
  MIC: < 0.2 mg/L

## CN(C)/C=C/c1cccc2nc3ccccc3cc12
[1]
  MIC: 21 mg/L (≈ 84.6 µM)

## NC[C@H]1O[C@H](O[C@H]2[C@H](O)[C@@H](O[C@H]3O[C@H](CO)[C@@H](O)[C@H](N)[C@H]3O)[C@H](N)C[C@@H]2N)[C@H](O)[C@@H](O)[C@@H]1O [KANAMYCIN]
[1]
  MIC: < 0.2 mg/L

## CN(C)CCc1c2c(nc3ccccc13)C(=O)c1ccccc1C2=O
Vero [4]
  IC50: 3.5 mg/L (≈ 10.6 µM)
Vero [5]
  Selectivity: 4.5
[1]
  MIC: 0.78 mg/L (≈ 2.36 µM)
